Results on twelve compounds are retold here after BindingDB's records for doi:10.1021/jm301674z (Takeda Pharmaceutical, 2013).

A word on the IC50: it is the concentration that inhibits the measured activity by half.

Sequence of Baculoviral IAP repeat-containing protein 2 (Homo sapiens) (Q13490 whole entry, looked up, the tested form may be a part): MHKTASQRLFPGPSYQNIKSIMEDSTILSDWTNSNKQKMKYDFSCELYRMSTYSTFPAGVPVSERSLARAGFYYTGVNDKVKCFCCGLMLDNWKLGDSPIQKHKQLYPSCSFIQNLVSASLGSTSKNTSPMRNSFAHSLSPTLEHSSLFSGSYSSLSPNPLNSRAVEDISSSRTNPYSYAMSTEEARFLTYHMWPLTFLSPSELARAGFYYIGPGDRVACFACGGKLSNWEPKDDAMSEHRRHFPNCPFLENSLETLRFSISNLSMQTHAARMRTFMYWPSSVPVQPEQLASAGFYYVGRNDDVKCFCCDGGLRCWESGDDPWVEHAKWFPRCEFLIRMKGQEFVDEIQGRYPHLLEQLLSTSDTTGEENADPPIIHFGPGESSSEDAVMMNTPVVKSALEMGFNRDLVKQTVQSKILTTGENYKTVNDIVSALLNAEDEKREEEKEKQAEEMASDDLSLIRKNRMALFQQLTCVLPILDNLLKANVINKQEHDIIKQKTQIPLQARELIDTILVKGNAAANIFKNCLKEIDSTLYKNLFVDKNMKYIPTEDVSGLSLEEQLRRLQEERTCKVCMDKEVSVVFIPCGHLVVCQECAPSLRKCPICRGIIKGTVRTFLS

This assay has as its target Baculoviral IAP repeat-containing protein 2 (Homo sapiens) (UniProt Q13490). Kind of assay: Inhibition of human recombinant His-tagged cIAP1 protein BIR3 domain (250 to 350 amino acid residues) using biotinylated-Smac as substrate after overnight incubation by HTRF assay. On the technique in general: In TR-FRET formats the signal depends on donor and acceptor labels being close together.
Regarding `CCO[C@@H]1C[C@@H]2CN(C(=O)[C@@H](NC(=O)[C@H](C)NC)C3CCC(F)(F)CC3)[C@H](C(=O)N[C@@H]3CCOc4ccccc43)CN2C1`, the IC50 is 1.3 nM.

For the compound `CN[C@@H](C)C(=O)N[C@H](C(=O)N1C[C@H]2C[C@@H](O)CN2C[C@H]1C(=O)N[C@@H]1CCOc2ccccc21)C1CCC(F)(F)CC1`, the IC50 amounted to 4.9 nM.

Turning to `CN[C@@H](C)C(=O)N[C@H](C(=O)N1C[C@H]2CC(F)(F)CN2C[C@H]1C(=O)N[C@@H]1CCOc2ccccc21)C1CCC(F)(F)CC1`, the IC50 worked out at 1.7 nM.

Take `CN[C@@H](C)C(=O)N[C@H](C(=O)N1C[C@@H]2CCCN2C[C@H]1C(=O)N[C@@H]1CCOc2ccccc21)C1CCC(F)(F)CC1`: the IC50 stood at 2.5 nM.

As to `CN[C@@H](C)C(=O)N[C@H](C(=O)N1C[C@H]2CCCN2C[C@H]1C(=O)N[C@@H]1CCOc2ccccc21)C1CCOCC1`, the IC50 came out at 3.4 nM.

For `CN[C@@H](C)C(=O)N[C@H](C(=O)N1C[C@H]2CCCN2C[C@H]1C(=O)N[C@@H]1CCOc2ccccc21)C1CCC(F)(F)CC1`, the IC50 is 3.2 nM.

Turning to `CN[C@@H](C)C(=O)N[C@H](C(=O)N1C[C@H]2CCCN2C[C@H]1C(=O)N[C@@H]1CCOc2ccccc21)c1ccccc1`, the IC50 is 2.6 nM.

As for `CN[C@@H](C)C(=O)N[C@H](C(=O)N1C[C@H]2CCCN2C[C@H]1C(=O)N[C@@H]1CCC(=O)c2ccccc21)C1CCCCC1`, the IC50 is 7.6 nM.

Regarding `CN[C@@H](C)C(=O)N[C@H](C(=O)N1C[C@H]2CCCN2C[C@H]1C(=O)N[C@@H]1CCC(F)(F)c2ccccc21)C1CCCCC1`, the IC50 is 4 nM.

With `CN[C@@H](C)C(=O)N[C@H](C(=O)N1C[C@H]2CCCN2C[C@H]1C(=O)N[C@H]1CCCc2ccccc21)C1CCCCC1`, the concentration for half-maximal inhibition (IC50) was 1300 nM.

`CN[C@@H](C)C(=O)N[C@H](C(=O)N1C[C@H]2CCCN2C[C@H]1C(=O)N[C@@H]1CCCc2ccccc21)C1CCCCC1`: the IC50 was found to be 2.7 nM.

Take `CN[C@@H](C)C(=O)N[C@H](C(=O)N1C[C@H]2CCCN2C[C@H]1C(=O)N[C@H](C)c1ccccc1)C1CCCCC1`: the IC50 is 14 nM.
